Assays:
[1] = system: phosphorylation of EGFR in NCI-H1975 cell line that harbors the EGFR L858R T790 M mutations; assay: NCI-H1975 pEGFR AlphaLISA assay; format: cell-based; conditions: Homo sapiens, NCI-H1975, NCI-H1975 cells, p-EGFR (Tyr1068), 4-5 hours incubation; read-out: Ext pEGFR H1975 GMean IC50 (nM) Protocol: @ Pharmaron AlphaLISA (Num)
Protocol: Inhibitory effects of the compounds of the disclosure were evaluated in cellular assays that measure level of intracellular phosphorylation of EGFR in NCI-H1975 cell line that harbors the EGFR L858R T790 M mutations (ATCC, CRL-5908) using AlphaLISA sureFire ultra p-EGFR (Tyr1068) assay kit (PerkinElmer, ALSU-PEGFR-A50K). The NCI-H1975 cells were seeded at 12.5K/well in 22 μL into 384 well opti plate (PerkinElmer, 6007299) and adhering overnight at 37° C./5% CO2. On the next day, the test compounds and DMSO control were added into H1975 cell plate followed by incubation at 37° C./5% CO2 for 4-5 hours. The cells were then spin down in the 384-well plate and lysed with 10 μL of 1× AlphaLISA lysis buffer followed by shaking at 600 rpm for 10 minutes at room temperature. After that, 5 μL of an acceptor bead mix was added to each well followed by incubation at room temperature for 1.5-2 h in dark. Then 5 μL of a donor bead mix was added to each well followed by overnight incubation at room temperature in dark. On the next day, the plate was read at a compatible plate reader to obtain pEGFR signal. Percent of pEGFR inhibition was plotted against log concentration of compounds to generate IC50 values.

[2] = molecular target: T1, EGFR (L858R T790 M C797S) (Homo sapiens, UniProt P00533, C797S/L858R/T790M); assay: Biochemical EGFR inhibition assay (Caliper mobility shift), LRTMCS mutant at 1 mM ATP; conditions: read-out: LRTMCS (PH) IC50 (nM) @ 1 mM ATP (Num)
T1 construct: purchased SignalChem E10-122VG
T1 sequence (P00533 25-1210 T790M/C797S/L858R): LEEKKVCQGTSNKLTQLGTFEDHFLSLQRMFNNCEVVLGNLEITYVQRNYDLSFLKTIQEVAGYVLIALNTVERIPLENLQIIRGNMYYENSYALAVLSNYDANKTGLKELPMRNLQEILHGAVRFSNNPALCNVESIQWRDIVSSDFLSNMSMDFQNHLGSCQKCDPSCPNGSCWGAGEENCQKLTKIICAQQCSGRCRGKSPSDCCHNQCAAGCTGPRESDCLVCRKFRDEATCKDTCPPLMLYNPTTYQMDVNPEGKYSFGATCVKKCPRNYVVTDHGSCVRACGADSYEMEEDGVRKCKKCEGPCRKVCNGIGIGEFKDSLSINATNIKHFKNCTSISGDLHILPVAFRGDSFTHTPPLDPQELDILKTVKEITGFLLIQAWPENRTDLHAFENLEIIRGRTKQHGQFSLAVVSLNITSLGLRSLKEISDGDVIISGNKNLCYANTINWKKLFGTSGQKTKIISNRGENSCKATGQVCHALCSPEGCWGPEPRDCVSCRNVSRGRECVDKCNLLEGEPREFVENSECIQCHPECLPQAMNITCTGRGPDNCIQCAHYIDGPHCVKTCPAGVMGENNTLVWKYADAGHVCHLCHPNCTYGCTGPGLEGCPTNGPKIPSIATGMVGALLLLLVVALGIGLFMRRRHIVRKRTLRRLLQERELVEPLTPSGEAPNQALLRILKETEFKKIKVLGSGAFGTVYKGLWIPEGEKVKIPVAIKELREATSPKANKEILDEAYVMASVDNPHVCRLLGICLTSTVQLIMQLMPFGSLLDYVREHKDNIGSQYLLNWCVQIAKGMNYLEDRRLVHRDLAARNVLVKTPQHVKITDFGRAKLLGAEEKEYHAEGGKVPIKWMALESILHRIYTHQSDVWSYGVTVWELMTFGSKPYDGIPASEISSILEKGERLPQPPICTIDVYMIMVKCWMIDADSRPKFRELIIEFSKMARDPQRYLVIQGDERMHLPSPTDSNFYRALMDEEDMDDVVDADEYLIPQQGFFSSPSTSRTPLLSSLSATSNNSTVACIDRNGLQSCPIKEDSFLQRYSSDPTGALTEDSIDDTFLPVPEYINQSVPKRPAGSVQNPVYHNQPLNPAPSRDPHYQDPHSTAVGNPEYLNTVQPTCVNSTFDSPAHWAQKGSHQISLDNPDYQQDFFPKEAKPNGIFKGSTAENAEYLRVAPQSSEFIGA
Protocol: Inhibitory effects of the compounds of the disclosure were measured in biochemical assays that measure the phosphorylation activity of EGFR enzyme phosphorylates 2.5 micromolar 5-FAM-[…]-CONH2 peptide substrate (FL-Peptide 22, PerkinElmer, 760366) in the presence of adenosine-5′-triphosphate (ATP) and varying concentrations of the test compound in 100 mM 2-[4-(2-hydroxyethyl)piperazin-1-yl]ethanesulfonic acid (HEPES), pH 7.5, 10 mM MgCl2, 0.015% Brij-35, 1 mM dithiothreitol (DTT), 1.0% dimethylsulfoxide (DMSO). Assays were performed at 1.0 mM ATP or at ATP Km of the EGFR enzymes. Reactions proceeded until between 10% to 20% total peptides were phosphorylated at room temperature (25° C.) and were terminated with 35 mM 2,2′,2″,2′″-(ethane-1,2-diyldinitrilo)tetraacetic acid (EDTA). Product was detected using the Caliper mobility shift detection method where the phosphorylated peptide (product) and substrate were electrophoretically separated and measured. Percent activity was plotted against log concentration of compound and points to generate an apparent IC50. The following enzyme forms of EGFR were examples that were used in these assays: • EGFR WT (SignalChem, E10-112G) • EGFR (L858R T790 M C797S) (SignalChem, E10-122VG) • EGFR (d746-750) T790 M C797S (SignalChem, E10-122UG) • EGFR L858R (SignalChem, E10-122BG) • EGFR (d746-750) (SignalChem, E10-122JG)

IC50 [1] [nM]	IC50 [2] [nM]	SMILES
> 50	15 to 20	CC(C)c1cnc(N2CC(CS(C)(=O)=O)C2)c2cnc(Nc3ccnc(C45CC(CO)(C4)C5)n3)cc12 [Example 4, (3-(4-((5-isopropyl-8-(3-((methylsulfonyl)methyl)azetidin-1-yl)-2,7-naphthyridin-3-yl)amino)pyrimidin-2-yl)bicyclo[1.1.1]pentan-1-yl)methanol]
> 50	30 to 100	CC(C)c1cnc(N2CC(CS(C)(=O)=O)C2)c2cnc(Nc3ccnc(C4CCC4)n3)cc12 [Example 5, N-(2-cyclobutylpyrimidin-4-yl)-5-isopropyl-8-(3-((methylsulfonyl)methyl)azetidin-1-yl)-2,7-naphthyridin-3-amine]
> 50	30 to 100	CC(C)c1cnc(N2CC(CS(C)(=O)=O)C2)c2cnc(Nc3ccnc([C@H]4C[C@@H](O)C4)n3)cc12 [Example 6, (1s,3s)-3-(4-((5-isopropyl-8-(3-((methylsulfonyl)methyl)azetidin-1-yl)-2,7-naphthyridin-3-yl)amino)pyrimidin-2-yl)cyclobutan-1-ol]
> 50	15 to 20	CC(C)c1cnc(N2CC(CS(C)(=O)=O)C2)c2cnc(Nc3ccnc([C@H]4C[C@H](O)C4)n3)cc12 [Example 7, (1r,3r)-3-(4-((5-isopropyl-8-(3-((methylsulfonyl)methyl)azetidin-1-yl)-2,7-naphthyridin-3-yl)amino)pyrimidin-2-yl)cyclobutan-1-ol]
< 10	≤ 15	Cc1ncc(-c2nccc(Nc3cc4c(C(C)C)ncc(N5CC(CS(C)(=O)=O)C5)c4cn3)n2)s1 [Example 8, 5-isopropyl-8-(3-((methylsulfonyl)methyl)azetidin-1-yl)-N-(2-(2-methylthiazol-5-yl)pyrimidin-4-yl)-2,6-naphthyridin-3-amine]
30 to 50	≤ 15	CC(C)c1ncc(N2CC(CS(C)(=O)=O)C2)c2cnc(Nc3ccnc(-c4cnn(C)c4)n3)cc12 [Example 9, 5-isopropyl-N-(2-(1-methyl-1H-pyrazol-4-yl)pyrimidin-4-yl)-8-(3-((methylsulfonyl)methyl)azetidin-1-yl)-2,6-naphthyridin-3-amine]
10 to 20	≤ 15	CC(C)c1ccc(N2CC(CS(C)(=O)=O)C2)c2cnc(Nc3ccnc(-c4cnn(C)c4)n3)cc12 [Example 10, 5-isopropyl-N-(2-(1-methyl-1H-pyrazol-4-yl)pyrimidin-4-yl)-8-(3-((methylsulfonyl)methyl)azetidin-1-yl)isoquinolin-3-amine]
> 50	30 to 100	COc1ccc(-c2nccc(Nc3cc4c(C(C)C)ccc(N5CC(CS(C)(=O)=O)C5)c4cn3)n2)cn1 [Example 11, 5-isopropyl-N-(2-(6-methoxypyridin-3-yl)pyrimidin-4-yl)-8-(3-((methylsulfonyl)methyl)azetidin-1-yl)isoquinolin-3-amine]
10 to 20	≤ 15	CCS(=O)(=O)CC1CN(c2ccc(C(C)C)c3cc(Nc4ccnc(-c5cnn(C)c5)n4)ncc23)C1 [Example 12, 8-(3-((ethylsulfonyl)methyl)azetidin-1-yl)-5-isopropyl-N-(2-(1-methyl-1H-pyrazol-4-yl)pyrimidin-4-yl)isoquinolin-3-amine]
10 to 20	≤ 15	CC(C)c1ccc(N2CC(CS(C)(=O)=O)C2)c2cnc(Nc3ccnc(-c4cccnc4)n3)cc12 [Example 13, 5-isopropyl-8-(3-((methylsulfonyl)methyl)azetidin-1-yl)-N-(2-(pyridin-3-yl)pyrimidin-4-yl)isoquinolin-3-amine]
> 50	30 to 100	CC(C)c1ccc(N2CC(CS(C)(=O)=O)C2)c2cnc(Nc3ccnc(-c4cncc(Cl)c4)n3)cc12 [Example 14, N-(2-(5-chloropyridin-3-yl)pyrimidin-4-yl)-5-isopropyl-8-(3-((methylsulfonyl)methyl)azetidin-1-yl)isoquinolin-3-amine]
30 to 50	15 to 20	CC(C)c1ccc(N2CC(CS(C)(=O)=O)C2)c2cnc(Nc3ccnc(C4=CCC5(CC4)OCCO5)n3)cc12 [Example 15, N-(2-(1,4-dioxaspiro[4.5]dec-7-en-8-yl)pyrimidin-4-yl)-5-isopropyl-8-(3-((methylsulfonyl)methyl)azetidin-1-yl)isoquinolin-3-amine]
> 50	30 to 100	CC(C)c1ccc(N2CC(CS(C)(=O)=O)C2)c2cnc(Nc3ccnc(C4CC(F)C4)n3)cc12 (centres unmarked) [Example 26, N′-(2-(3-fluorocyclobutyl)pyrimidin-4-yl)-5-isopropyl-8-(3-((methylsulfonyl)methyl)azetidin-1-yl)isoquinolin-3-amine]

Source: US20240300946A1, “EGFR INHIBITORS” (Blueprint Medicines Corporation, priority 2021, published 2024)
